According to the supplement of paper PMC13380429:

Assays:
Vero E6 [1] = assay: drug sensitivity score (DSS) for viability; higher = more toxic; extreme values may be limits of the assay; conditions: 72 h
Caco-2 [2] = assay: as above; conditions: 72 h
U2OS [3] = assay: as above; conditions: 72 h
HepG2 [4] = assay: as above; conditions: 72 h
Calu-3 [5] = assay: as above; conditions: 72 h
Vero E6 [6] = assay: cell viability relative to DMSO; higher = less toxic; conditions: 72 h
Caco-2 [7] = assay: as above; conditions: 72 h
U2OS [8] = assay: as above; conditions: 72 h
HepG2 [9] = assay: as above; conditions: 72 h
Calu-3 [10] = assay: as above; conditions: 72 h
A549-ACE2 [11] = assay: drug-induced phospholipidosis relative to tamoxifen; higher = more phospholipidosis
[12] = tested on: A549-ACE2 infected with SARS-CoV-2; assay: morphology score (similarity to uninfected cells); higher = more like uninfected cells; conditions: 24 h
Caco-2 [13] = assay: relative viability EC50 (midpoint between 100% and the lowest measured viability); higher = less toxic; conditions: 72 h
U2OS [14] = assay: as above; conditions: 72 h
HepG2 [15] = assay: as above; conditions: 72 h
Calu-3 [16] = assay: as above; conditions: 72 h
A549-ACE2 [17] = assay: phospholipidosis EC50; higher = less potent phospholipidosis inducer
[18] = tested on: A549-ACE2 infected with SARS-CoV-2; assay: cell count relative to DMSO; higher = less toxic; conditions: 24 h
[19] = tested on: A549-ACE2 infected with SARS-CoV-2; assay: SARS-CoV-2 infection rate relative to DMSO; higher = more infection; conditions: 24 h
Vero E6 [20] = assay: relative viability EC50 (midpoint between 100% and the lowest measured viability); higher = less toxic; conditions: 72 h

O=C(CCCN1CCC2(CC1)C(=O)N(Cc1cccc(F)c1)CN2c1ccccc1)c1ccc(F)cc1 [3'-fluorobenzylspiperone]
Conditions	drug sensitivity score	relative viability EC50 [µM]
Caco-2 [2]	3.9	–
Caco-2 [13]	–	3.28
Calu-3 [5]	3.8	–
Calu-3 [16]	–	3.25
HepG2 [4]	2.7	–
HepG2 [15]	–	3.46
U2OS [3]	4.1	–
U2OS [14]	–	3.15
Vero E6 [1]	2.6	–

Conditions	SARS-CoV-2 infection rate [%]	cell count [%]	cell viability [%]	morphology score	phospholipidosis EC50 [µM]
A549-ACE2 [17], 48 h	–	–	–	–	2.95
Caco-2 [7], 1 nM	–	–	90.9	–	–
Caco-2 [7], 10 nM	–	–	91.1	–	–
Caco-2 [7], 100 nM	–	–	100	–	–
Caco-2 [7], 1000 nM	–	–	101	–	–
Caco-2 [7], 10000 nM	–	–	27.9	–	–
Calu-3 [10], 1 nM	–	–	101	–	–
Calu-3 [10], 10 nM	–	–	106	–	–
Calu-3 [10], 100 nM	–	–	90.6	–	–
Calu-3 [10], 1000 nM	–	–	101	–	–
Calu-3 [10], 10000 nM	–	–	29.7	–	–
HepG2 [9], 1 nM	–	–	94.6	–	–
HepG2 [9], 10 nM	–	–	98.1	–	–
HepG2 [9], 100 nM	–	–	95.9	–	–
HepG2 [9], 1000 nM	–	–	103	–	–
HepG2 [9], 10000 nM	–	–	44.4	–	–
U2OS [8], 1 nM	–	–	96.5	–	–
U2OS [8], 10 nM	–	–	102	–	–
U2OS [8], 100 nM	–	–	98.7	–	–
U2OS [8], 1000 nM	–	–	99.8	–	–
U2OS [8], 10000 nM	–	–	26.4	–	–
Vero E6 [6], 1 nM	–	–	103	–	–
Vero E6 [6], 10 nM	–	–	97.2	–	–
Vero E6 [6], 100 nM	–	–	93	–	–
Vero E6 [6], 1000 nM	–	–	95.1	–	–
Vero E6 [6], 10000 nM	–	–	62.9	–	–
[12], 0.1 µM	–	–	–	-0.13	–
[12], 0.3 µM	–	–	–	0.27	–
[12], 1 µM	–	–	–	0.46	–
[12], 3 µM	–	–	–	0.54	–
[18], 0.1 µM	–	97	–	–	–
[18], 0.3 µM	–	102	–	–	–
[18], 1 µM	–	109	–	–	–
[18], 3 µM	–	107	–	–	–
[19], 0.1 µM	99	–	–	–	–
[19], 0.3 µM	90	–	–	–	–
[19], 1 µM	87	–	–	–	–
[19], 3 µM	17	–	–	–	–

drug-induced phospholipidosis [%], A549-ACE2 [11]
Conditions	0.3 µM	0.833333 µM	3.33333 µM	6.66667 µM	10 µM	30 µM
24 h	3.51	-1.7	29	48.2	-29.1	-34.9
48 h	4.33	1.23	42.2	60	–	–
72 h	4.04	1.05	39.3	48.1	–	–

Cc1ccc(NC(=O)c2ccc(CN3CCN(C)CC3)cc2)cc1Nc1nccc(-c2cccnc2)n1 [imatinib]
Conditions	drug sensitivity score
Calu-3 [5]	0.1
HepG2 [4]	2.4
U2OS [3]	0
Vero E6 [1]	0

Conditions	morphology score, 0.3 µM	morphology score, 3 µM	morphology score, 10 µM	morphology score, 30 µM	phospholipidosis EC50, 24 h [µM]	phospholipidosis EC50, 48 h [µM]	phospholipidosis EC50, 72 h [µM]
A549-ACE2 [17]	–	–	–	–	6.11	13	10
[12]	0.28	0.55	0.73	-0.03	–	–	–

COC(=O)C1=C(C)NC(C)=C(C(=O)NCCCN2CCC(c3ccccc3)(c3ccccc3)CC2)C1c1ccc([N+](=O)[O-])cc1 (stereo not drawn) [SNAP-5089]
Conditions	drug sensitivity score	relative viability EC50 [µM]
Caco-2 [2]	1.4	–
Calu-3 [5]	4.4	–
Calu-3 [16]	–	3.57
HepG2 [4]	3.7	–
HepG2 [15]	–	3.02
U2OS [3]	1.6	–
Vero E6 [1]	1.9	–

Conditions	SARS-CoV-2 infection rate [%]	cell count [%]	cell viability [%]	morphology score	phospholipidosis EC50 [µM]
A549-ACE2 [17], 24 h	–	–	–	–	0.945
A549-ACE2 [17], 48 h	–	–	–	–	1.98
A549-ACE2 [17], 72 h	–	–	–	–	4.51
Caco-2 [7], 1 nM	–	–	95.4	–	–
Caco-2 [7], 10 nM	–	–	94.8	–	–
Caco-2 [7], 100 nM	–	–	92.9	–	–
Caco-2 [7], 1000 nM	–	–	106	–	–
Caco-2 [7], 10000 nM	–	–	63	–	–
Calu-3 [10], 1 nM	–	–	88.4	–	–
Calu-3 [10], 10 nM	–	–	101	–	–
Calu-3 [10], 100 nM	–	–	92.3	–	–
Calu-3 [10], 1000 nM	–	–	107	–	–
Calu-3 [10], 10000 nM	–	–	12.1	–	–
HepG2 [9], 1 nM	–	–	114	–	–
HepG2 [9], 10 nM	–	–	108	–	–
HepG2 [9], 100 nM	–	–	102	–	–
HepG2 [9], 1000 nM	–	–	98.6	–	–
HepG2 [9], 10000 nM	–	–	35.5	–	–
U2OS [8], 1 nM	–	–	94.4	–	–
U2OS [8], 10 nM	–	–	98.7	–	–
U2OS [8], 100 nM	–	–	98.5	–	–
U2OS [8], 1000 nM	–	–	102	–	–
U2OS [8], 10000 nM	–	–	63.8	–	–
Vero E6 [6], 1 nM	–	–	94.8	–	–
Vero E6 [6], 10 nM	–	–	98.5	–	–
Vero E6 [6], 100 nM	–	–	97.4	–	–
Vero E6 [6], 1000 nM	–	–	91.8	–	–
Vero E6 [6], 10000 nM	–	–	74.3	–	–
[12], 0.1 µM	–	–	–	0.15	–
[12], 0.3 µM	–	–	–	-0.06	–
[12], 1 µM	–	–	–	0.43	–
[12], 3 µM	–	–	–	0.87	–
[18], 0.1 µM	–	104	–	–	–
[18], 0.3 µM	–	100	–	–	–
[18], 1 µM	–	110	–	–	–
[18], 3 µM	–	123	–	–	–
[19], 0.1 µM	92	–	–	–	–
[19], 0.3 µM	107	–	–	–	–
[19], 1 µM	84	–	–	–	–
[19], 3 µM	23	–	–	–	–

drug-induced phospholipidosis [%], A549-ACE2 [11]
Conditions	0.3 µM	0.833333 µM	3.33333 µM	6.66667 µM	10 µM	30 µM
24 h	5.01	19.9	66.9	74.6	62.5	47.6
48 h	7.57	17.4	77.4	93.7	96.6	–
72 h	6.91	11.4	64.3	94.9	116	–

OCc1cc(C(O)CNCCCCCCOCCCCc2ccccc2)ccc1O (stereo not drawn) [salmeterol]
Conditions	drug sensitivity score	relative viability EC50 [µM]
Caco-2 [2]	0.1	–
Caco-2 [13]	–	> 10
Calu-3 [5]	0	–
Calu-3 [16]	–	> 10
HepG2 [4]	1	–
U2OS [3]	0	–
U2OS [14]	–	> 10
Vero E6 [1]	0	–
Vero E6 [20]	–	> 10

Conditions	SARS-CoV-2 infection rate [%]	cell count [%]	cell viability [%]	morphology score	phospholipidosis EC50 [µM]
A549-ACE2 [17], 24 h	–	–	–	–	5.09
A549-ACE2 [17], 48 h	–	–	–	–	7.38
A549-ACE2 [17], 72 h	–	–	–	–	8.86
Caco-2 [7], 1 nM	–	–	97.4	–	–
Caco-2 [7], 10 nM	–	–	96.6	–	–
Caco-2 [7], 100 nM	–	–	95.1	–	–
Caco-2 [7], 1000 nM	–	–	92.7	–	–
Caco-2 [7], 10000 nM	–	–	86.6	–	–
Calu-3 [10], 1 nM	–	–	112	–	–
Calu-3 [10], 10 nM	–	–	97.4	–	–
Calu-3 [10], 100 nM	–	–	100	–	–
Calu-3 [10], 1000 nM	–	–	99	–	–
Calu-3 [10], 10000 nM	–	–	98.9	–	–
HepG2 [9], 1 nM	–	–	107	–	–
HepG2 [9], 10 nM	–	–	107	–	–
HepG2 [9], 100 nM	–	–	94	–	–
HepG2 [9], 1000 nM	–	–	105	–	–
HepG2 [9], 10000 nM	–	–	70.8	–	–
U2OS [8], 1 nM	–	–	103	–	–
U2OS [8], 10 nM	–	–	97.7	–	–
U2OS [8], 100 nM	–	–	99.9	–	–
U2OS [8], 1000 nM	–	–	99.3	–	–
U2OS [8], 10000 nM	–	–	95.2	–	–
Vero E6 [6], 1 nM	–	–	101	–	–
Vero E6 [6], 10 nM	–	–	106	–	–
Vero E6 [6], 100 nM	–	–	101	–	–
Vero E6 [6], 1000 nM	–	–	107	–	–
Vero E6 [6], 10000 nM	–	–	97.5	–	–
[12], 0.3 µM	–	–	–	-0.02	–
[12], 3 µM	–	–	–	0.15	–
[12], 10 µM	–	–	–	0.89	–
[12], 30 µM	–	–	–	0.58	–
[18], 0.3 µM	–	101	–	–	–
[18], 3 µM	–	108	–	–	–
[18], 10 µM	–	121	–	–	–
[18], 30 µM	–	102	–	–	–
[19], 0.3 µM	107	–	–	–	–
[19], 3 µM	91	–	–	–	–
[19], 10 µM	19	–	–	–	–
[19], 30 µM	17	–	–	–	–

drug-induced phospholipidosis [%], A549-ACE2 [11]
Conditions	0.3 µM	0.833333 µM	3.33333 µM	6.66667 µM	10 µM	30 µM
24 h	-0.12	-0.14	9.06	65.1	85.7	80.3
48 h	2.35	2.68	8.06	52.9	83.5	117
72 h	3.27	1.57	6.45	37.9	80.7	130

Clc1cc(Cl)c(OCC#CI)cc1Cl [haloprogin]
Conditions	drug sensitivity score	relative viability EC50 [µM]
Caco-2 [2]	0	–
Caco-2 [13]	–	> 10
Calu-3 [5]	0	–
Calu-3 [16]	–	> 10
HepG2 [4]	3.4	–
U2OS [3]	3.6	–
U2OS [14]	–	2.42
Vero E6 [1]	0	–
Vero E6 [20]	–	> 10

Conditions	SARS-CoV-2 infection rate, [19] [%]	cell count, [18] [%]	cell viability, Caco-2 [7] [%]	cell viability, Calu-3 [10] [%]	cell viability, HepG2 [9] [%]	cell viability, U2OS [8] [%]	cell viability, Vero E6 [6] [%]	morphology score, [12]
1 nM	–	–	109	84	91.8	95.6	95.3	–
10 nM	–	–	90.2	88.5	104	95.2	96.9	–
100 nM	–	–	95.1	99.9	116	97.5	90.6	–
0.3 µM	97	100	–	–	–	–	–	0.18
1000 nM	–	–	130	95.9	91	95.2	101	–
3 µM	83	100	–	–	–	–	–	0.44
10000 nM	–	–	97	110	59.5	47.1	93.9	–
10 µM	71	79	–	–	–	–	–	0.28
30 µM	15	15	–	–	–	–	–	0.1

drug-induced phospholipidosis [%], A549-ACE2 [11]
Conditions	0.3 µM	0.833333 µM	3.33333 µM	6.66667 µM	10 µM
24 h	4.53	2.7	5.33	17.8	23.3
48 h	-1.51	-0.64	1.31	14.4	7.74
72 h	5.04	-1.02	-0.916	2.19	-6.87
